Read-outs that look alike come from different tables or passages of the source. One block for each compound: values may come before it.
What was measured:
PI3Kδ = molecular target: T1, PI3Kδ (Homo sapiens, UniProt O00329); assay: In vitro test of enzyme activity (ADP-Glo lipokinase), PI3K delta; format: biochemical; details: 40 μM ATP, 50 μM PIP2:3PS, 120 min
T1 construct: purchased Millipore 14-604-K
Description: (§1) 1. In Vitro Test of Enzyme Activity
(§2) The lipokinase reaction was carried out under the conditions of a suitable substrate and ATP, followed by two steps to detect the kinase activity with the ADP-Glo™ kit. The first step was terminating the kinase reaction, wherein the remaining ATP was completely removed and only ADP was left; the second step was adding kinase detection reagents to convert ADP to ATP, accompanied by luciferin/luciferase reaction. Finally, the output value of fluorescence value was converted into kinase activity.
(§3) Experimental materials and equipments:
(§4) 2. Kit: ADP-Glo™ Lipokinase and PIP2:3PS Kit (Promega # V1792)
(§5) The kit contains: 1 mM PIP2:3PS, 10× lipid dilution buffer, 1 M magnesium chloride, 10 mM ATP, 10 mM ADP, ADP-Glo reagent, detection buffer and detection substrate.
(§6) 3. Reaction plate: OptiPlate-384, white and transparent (PerkinElmer #6007299).
(§7) 1. 10× reaction buffer: 500 mM HEPES, pH 7.5, 500 mM NaCl, 9 mM MgCl2; BSA: 10% stock solution, homemade.
(§8) 2. Final test system conditions: 1× reaction system: 50 mM HEPES, 50 mM NaCl, 3 mM MgCl2, 0.01% BSA (freshly prepared on the day of the experiment), 1% DMSO (v/v)+/−compound
(§9) 3. Reaction system: 3 μL mixture of the enzyme and the substrate (1:1)+2 μL ATP/MgCl2 mixture+5 μL ADP-Glo reagent+10 μL detection reagent.
(§10) The detailed experimental procedures are as follows:
(§11) 1. Compound dilution: 50 nL 100×compound/DMSO was transferred to the test well plate with Echo. • For PI3Kα, the compound was diluted three-fold from the highest concentration of 0.111 mM for a total of 10 concentrations. • For PI3Kβ/PI3Kδ/PI3Kγ, the compound was three-fold diluted from the highest concentration of 1.11 mM for a total of 10 concentrations.
(§12) (1) The compound to be tested was prepared and 50 nL of 100 plus compound solution or DMSO was added to the corresponding well plate.
(§13) (2) 3.33 plate reaction buffer was prepared.
(§14) (3) 3.33 solution PIP2:3PS was prepared, PIP2:3PS was thawed for at least 1 minute before use.
(§15) (4) 2.5 mM containing 5.25 mM MgCl2 was prepared.
(§16) (5) 3.33 PI3Kα/PI3Kβ/PI3Kδ/PI3Kγ solution was prepared.
(§17) (6) The lipokinase solution and the PIP2:3PS solution were mixed in a volume ratio of 1:1.
(§18) (7) 3.33: lipokinase buffer and PIP2:3PS solution were mixed in a volume ratio of 1:1.
(§19) (8) 3 μL of buffer solution and PIP2:3PS were added to the first and the second columns of the well plate.
(§20) (9) 3 μL of the mixed solution of the enzyme and PIP2:3PS was added to the wells except the first and the second columns, centrifuged for 10 seconds (1000 rpm) and incubated at 23° C. for 20 minutes.
(§21) (10) 2 μL […] was added and well was shaken.
(§22) (11) The well plate was covered and shaken for about 30 s, then the well plate was incubated at 23° C. for 2 hours.
(§23) (12) 5 μL of ADP-Glo reagent containing 10 mM MgCl2 was added.
(§24) (13) The well plate was centrifuged at 1000 rpm for 10 seconds, and the well plate was then covered, shaken for about 30 seconds, and incubated at 23° C. for 60 minutes.
(§25) (14) 10 μL kinase detection reagent was added.
(§26) (15) The well plate was centrifuged at 1000 rpm for 10 seconds, and then incubated at 23° C. for 60 minutes.
(§27) (16) The fluorescence value was measured on the Envision instrument.

PI3Kγ = molecular target: T2, PI3Kγ (Homo sapiens, UniProt P48736); assay: In vitro test of enzyme activity (ADP-Glo lipokinase), PI3K gamma; format: biochemical; details: 25 μM ATP, 50 μM PIP2:3PS, 120 min
T2 construct: purchased Millipore 14-558-K
T2 sequence (P48736 whole entry): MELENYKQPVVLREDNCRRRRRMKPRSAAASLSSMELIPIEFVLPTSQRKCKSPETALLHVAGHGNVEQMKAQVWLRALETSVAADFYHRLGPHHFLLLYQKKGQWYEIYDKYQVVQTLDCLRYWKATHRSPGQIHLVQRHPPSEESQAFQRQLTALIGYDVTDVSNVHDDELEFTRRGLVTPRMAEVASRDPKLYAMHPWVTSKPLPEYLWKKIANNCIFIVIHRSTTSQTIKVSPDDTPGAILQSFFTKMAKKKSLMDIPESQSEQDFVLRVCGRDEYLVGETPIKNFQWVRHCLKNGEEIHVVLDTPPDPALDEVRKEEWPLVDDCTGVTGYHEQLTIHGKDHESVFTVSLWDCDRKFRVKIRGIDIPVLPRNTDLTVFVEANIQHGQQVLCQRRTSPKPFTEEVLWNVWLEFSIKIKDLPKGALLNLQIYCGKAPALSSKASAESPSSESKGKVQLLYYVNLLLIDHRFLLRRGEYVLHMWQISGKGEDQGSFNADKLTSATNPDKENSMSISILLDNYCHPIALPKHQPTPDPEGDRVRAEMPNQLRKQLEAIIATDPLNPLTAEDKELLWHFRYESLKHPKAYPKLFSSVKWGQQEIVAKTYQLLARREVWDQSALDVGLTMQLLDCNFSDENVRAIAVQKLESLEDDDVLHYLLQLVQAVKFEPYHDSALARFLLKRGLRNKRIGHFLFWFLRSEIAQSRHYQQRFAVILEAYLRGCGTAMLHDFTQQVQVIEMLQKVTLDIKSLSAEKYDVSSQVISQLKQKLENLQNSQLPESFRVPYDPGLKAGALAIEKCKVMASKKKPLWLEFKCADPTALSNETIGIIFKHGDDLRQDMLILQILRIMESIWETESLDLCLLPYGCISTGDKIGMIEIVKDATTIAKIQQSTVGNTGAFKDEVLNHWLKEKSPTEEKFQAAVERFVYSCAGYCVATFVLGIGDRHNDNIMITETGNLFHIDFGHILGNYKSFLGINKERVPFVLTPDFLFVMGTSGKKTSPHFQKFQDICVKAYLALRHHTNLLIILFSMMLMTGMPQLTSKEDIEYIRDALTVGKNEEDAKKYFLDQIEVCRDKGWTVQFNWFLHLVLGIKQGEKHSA
Description: as §1, §2, §3, §4, §5, §6, §7, §8, §9, §10, §11, §12, §13, §14, §15, §16, §17, §18, §19, §20, §21, §22, §23, §24, §25, §26, §27

[1] = In vivo DMPK study in mice after a single administration; design: species or system female Balb/c mice; details: oral, 10 mpk
Description: Experimental objective: female Balb/c mice were used as the test animals, and the blood concentration of the compound was determined and the pharmacokinetic behavior was evaluated after a single administration.
Experimental operation: 12 healthy adult female Balb/c mice were selected, 6 for intravenous injection group and 6 for oral administration group. The compound to be tested was mixed with an appropriate amount of intravenous injection group vehicle (10% HP-betaCD: 10% solutol=1:1, pH=8), vortex-mixed and sonicated to prepare a 1.0 mg/mL clear solution, followed by filtration for subsequent use; the vehicle in the oral group was 0.5% MC/0.2% Tw80. After the test compound and the vehicle were mixed, it was vortex-mixed and sonicated to prepare a 1.0 mg/mL homogeneous suspension for subsequent use. After an intravenous administration at a dose of 1 mg/kg or an oral administration at the dose of 2 mg/kg and 10 mg/kg, whole blood of the mice was collected for a certain period of time to prepare plasma. The drug concentration was analyzed by LC-MS/MS method, and Phoenix WinNonlin software was used (Pharsight, USA) to calculate the pharmacokinetic parameters.
Cmax: the highest concentration of the drug in the body; F %: oral bioavailability; Oral DNAUC: area under the dose normalization curve; Vd: apparent volume of distribution; Cl: clearance rate; T1/2: half-life.

[2] = system: phosphorylation of PI3K downstream protein Akt in MCF7 cells; assay: In vitro test of cells activity: ELISA of Akt phosphorylation in MCF7 cells; format: cell-based; details: 2 h compound, insulin 10 μg/mL stimulation, pAkt ELISA, read-out: MCF7 Cell IC50
Description: 2. In vitro test of cells activity
By the method of ELISA, the inhibition level of the test compound on the phosphorylation of PI3K downstream protein Akt in the signaling pathway was determined in MCF7 cells line to reflect the cells activity of the compound.
Cell culture medium: complete cell culture medium (RPMI 1640+10% serum+1% L-glutamine+1% double antibody)
Serum-free medium (without serum, RPMI 1640+1% L-glutamine+1% double antibody)
The detailed procedures areas follows:
(1) MCF7 cells (ATCC® HTB-22™) were inoculated into a 96-well plate at 100 μL of cell complete medium per well (2.5*10^4 cells per well), and the cells were incubated at 37° C. and 5% CO2 for 24 hours.
(2) The complete cell culture medium was replaced with 100 μL of serum-free medium, and incubated for starvation overnight.
(3) The compound was prepared (The initial concentration of the compound is 1 mM, which was subjected to a three-fold dilution in 10 concentrations, and the compound of each concentration was then diluted 100-fold with serum-free medium). 25 μL of the diluted compound was added to the cells orifice plate.
(4) The cells were incubated at 37° C. and 5% CO2 for 2 hours.
(5) The cells in the well plate were stimulated with 10 μg/mL insulin (Sigma # I9278-5 mL), incubated for 30 minutes, and then centrifuged at 1000 rpm for 5 minutes at room temperature.
(6) 250 μL of 1× balanced salt solution (Invitrogen, #14065-056, 4° C., containing 1 mM/L Na3VO4) was added to each well to wash the cells once.
(7) 100 μL of lysis buffer (trimethylolaminomethane hydrochloride, Invitrogen, #15567-1000 ml) was added to each well, shaken at 4° C. for 60 minutes, and then centrifuged at 4000 rpm for 4 minutes.
(8) The following procedures were carried out according to the instructions of ELISA kit (TGR BioSciences # EKT002).

PI3Kβ = molecular target: T3, PI3Kβ (Homo sapiens, UniProt P42338); assay: In vitro test of enzyme activity (ADP-Glo lipokinase), PI3K beta; format: biochemical; details: 40 μM ATP, 50 μM PIP2:3PS, 120 min
T3 construct: purchased Promega V1751
T3 sequence (P42338 whole entry): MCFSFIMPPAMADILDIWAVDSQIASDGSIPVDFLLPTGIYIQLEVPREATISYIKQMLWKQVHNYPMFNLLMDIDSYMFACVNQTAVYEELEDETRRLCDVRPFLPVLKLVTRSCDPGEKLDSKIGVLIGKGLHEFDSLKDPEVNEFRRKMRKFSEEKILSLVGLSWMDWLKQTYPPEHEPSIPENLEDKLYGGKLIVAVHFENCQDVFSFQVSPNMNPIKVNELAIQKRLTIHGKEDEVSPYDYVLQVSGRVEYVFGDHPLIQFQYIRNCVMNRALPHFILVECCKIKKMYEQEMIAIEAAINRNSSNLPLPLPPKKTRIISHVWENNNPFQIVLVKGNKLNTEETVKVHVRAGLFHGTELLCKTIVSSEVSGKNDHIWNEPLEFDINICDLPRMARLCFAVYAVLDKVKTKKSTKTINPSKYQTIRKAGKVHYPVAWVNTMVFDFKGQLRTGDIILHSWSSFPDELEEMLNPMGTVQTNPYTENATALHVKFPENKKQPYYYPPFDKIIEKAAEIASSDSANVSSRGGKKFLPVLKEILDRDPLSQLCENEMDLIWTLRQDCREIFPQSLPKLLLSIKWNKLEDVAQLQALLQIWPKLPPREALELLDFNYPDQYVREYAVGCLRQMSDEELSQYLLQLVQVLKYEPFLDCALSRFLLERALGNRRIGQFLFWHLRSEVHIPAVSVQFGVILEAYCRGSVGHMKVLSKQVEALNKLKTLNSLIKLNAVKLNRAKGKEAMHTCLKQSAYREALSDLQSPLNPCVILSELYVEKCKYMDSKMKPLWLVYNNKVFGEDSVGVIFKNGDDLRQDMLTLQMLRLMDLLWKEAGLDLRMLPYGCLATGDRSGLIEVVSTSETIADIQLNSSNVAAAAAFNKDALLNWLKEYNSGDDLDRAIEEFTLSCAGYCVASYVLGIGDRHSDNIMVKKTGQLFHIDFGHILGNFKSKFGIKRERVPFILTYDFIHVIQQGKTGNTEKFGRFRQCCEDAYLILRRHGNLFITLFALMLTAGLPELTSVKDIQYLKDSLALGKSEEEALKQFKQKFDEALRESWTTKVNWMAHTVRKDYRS
T3 sequence (P27986 whole entry partner): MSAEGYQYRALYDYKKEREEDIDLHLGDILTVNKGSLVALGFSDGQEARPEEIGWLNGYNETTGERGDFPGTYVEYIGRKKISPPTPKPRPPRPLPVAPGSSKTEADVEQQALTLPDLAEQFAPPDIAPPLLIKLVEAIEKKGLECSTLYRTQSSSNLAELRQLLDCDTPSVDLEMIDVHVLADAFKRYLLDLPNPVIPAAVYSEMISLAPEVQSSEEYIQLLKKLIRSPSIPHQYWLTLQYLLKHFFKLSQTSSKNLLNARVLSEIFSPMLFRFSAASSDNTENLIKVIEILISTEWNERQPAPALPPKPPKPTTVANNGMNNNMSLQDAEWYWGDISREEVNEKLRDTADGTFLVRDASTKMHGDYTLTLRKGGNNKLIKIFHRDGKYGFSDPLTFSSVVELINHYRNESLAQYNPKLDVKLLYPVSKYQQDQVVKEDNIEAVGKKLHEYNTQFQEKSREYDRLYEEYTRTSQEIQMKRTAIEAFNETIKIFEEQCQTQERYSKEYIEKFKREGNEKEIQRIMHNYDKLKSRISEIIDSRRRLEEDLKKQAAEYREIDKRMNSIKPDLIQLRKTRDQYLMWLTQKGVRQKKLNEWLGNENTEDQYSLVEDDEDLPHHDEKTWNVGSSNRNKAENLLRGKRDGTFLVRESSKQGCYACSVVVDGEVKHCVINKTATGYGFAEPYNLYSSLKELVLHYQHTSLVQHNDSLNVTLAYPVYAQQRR
Description: as §1, §2, §3, §4, §5, §6, §7, §8, §9, §10, §11, §12, §13, §14, §15, §16, §17, §18, §19, §20, §21, §22, §23, §24, §25, §26, §27

PI3Kα = molecular target: T4, PI3Kα (Homo sapiens, UniProt P42336); assay: In vitro test of enzyme activity (ADP-Glo lipokinase), PI3K alpha; format: biochemical; details: 40 μM ATP, 50 μM PIP2:3PS, 120 min
T4 construct: purchased Millipore 14-602-K
T4 sequence (P42336 whole entry): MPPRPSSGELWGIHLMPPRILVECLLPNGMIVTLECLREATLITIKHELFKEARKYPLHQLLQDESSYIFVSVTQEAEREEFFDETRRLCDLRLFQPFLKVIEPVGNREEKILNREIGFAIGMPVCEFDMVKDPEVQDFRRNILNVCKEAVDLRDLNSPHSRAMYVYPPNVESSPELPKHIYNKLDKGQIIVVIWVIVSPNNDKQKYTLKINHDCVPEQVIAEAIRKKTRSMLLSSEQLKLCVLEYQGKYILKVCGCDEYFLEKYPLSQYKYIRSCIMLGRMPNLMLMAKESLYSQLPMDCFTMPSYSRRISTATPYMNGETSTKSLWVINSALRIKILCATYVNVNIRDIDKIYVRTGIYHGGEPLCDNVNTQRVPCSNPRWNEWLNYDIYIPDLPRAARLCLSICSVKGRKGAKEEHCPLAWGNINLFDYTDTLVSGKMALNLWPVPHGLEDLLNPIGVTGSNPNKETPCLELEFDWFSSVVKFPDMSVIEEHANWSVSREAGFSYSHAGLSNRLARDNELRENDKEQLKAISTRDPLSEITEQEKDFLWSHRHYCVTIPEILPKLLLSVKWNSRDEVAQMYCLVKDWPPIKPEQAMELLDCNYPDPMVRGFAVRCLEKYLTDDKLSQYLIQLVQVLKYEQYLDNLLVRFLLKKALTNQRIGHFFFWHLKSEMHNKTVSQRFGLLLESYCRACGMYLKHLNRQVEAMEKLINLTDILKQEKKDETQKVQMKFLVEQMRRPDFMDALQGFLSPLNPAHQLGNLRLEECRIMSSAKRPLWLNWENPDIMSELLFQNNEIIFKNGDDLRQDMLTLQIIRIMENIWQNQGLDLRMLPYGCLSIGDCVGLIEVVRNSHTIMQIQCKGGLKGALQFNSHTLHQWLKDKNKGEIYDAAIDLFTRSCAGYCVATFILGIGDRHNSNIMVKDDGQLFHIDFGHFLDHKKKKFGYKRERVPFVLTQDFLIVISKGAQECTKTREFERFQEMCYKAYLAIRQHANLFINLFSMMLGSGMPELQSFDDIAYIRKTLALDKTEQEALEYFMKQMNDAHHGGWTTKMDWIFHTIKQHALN
T4 sequence (P27986 whole entry partner): as the sequence (P27986 whole entry partner) above
Description: as §1, §2, §3, §4, §5, §6, §7, §8, §9, §10, §11, §12, §13, §14, §15, §16, §17, §18, §19, §20, §21, §22, §23, §24, §25, §26, §27

T1 sequence (O00329 whole entry): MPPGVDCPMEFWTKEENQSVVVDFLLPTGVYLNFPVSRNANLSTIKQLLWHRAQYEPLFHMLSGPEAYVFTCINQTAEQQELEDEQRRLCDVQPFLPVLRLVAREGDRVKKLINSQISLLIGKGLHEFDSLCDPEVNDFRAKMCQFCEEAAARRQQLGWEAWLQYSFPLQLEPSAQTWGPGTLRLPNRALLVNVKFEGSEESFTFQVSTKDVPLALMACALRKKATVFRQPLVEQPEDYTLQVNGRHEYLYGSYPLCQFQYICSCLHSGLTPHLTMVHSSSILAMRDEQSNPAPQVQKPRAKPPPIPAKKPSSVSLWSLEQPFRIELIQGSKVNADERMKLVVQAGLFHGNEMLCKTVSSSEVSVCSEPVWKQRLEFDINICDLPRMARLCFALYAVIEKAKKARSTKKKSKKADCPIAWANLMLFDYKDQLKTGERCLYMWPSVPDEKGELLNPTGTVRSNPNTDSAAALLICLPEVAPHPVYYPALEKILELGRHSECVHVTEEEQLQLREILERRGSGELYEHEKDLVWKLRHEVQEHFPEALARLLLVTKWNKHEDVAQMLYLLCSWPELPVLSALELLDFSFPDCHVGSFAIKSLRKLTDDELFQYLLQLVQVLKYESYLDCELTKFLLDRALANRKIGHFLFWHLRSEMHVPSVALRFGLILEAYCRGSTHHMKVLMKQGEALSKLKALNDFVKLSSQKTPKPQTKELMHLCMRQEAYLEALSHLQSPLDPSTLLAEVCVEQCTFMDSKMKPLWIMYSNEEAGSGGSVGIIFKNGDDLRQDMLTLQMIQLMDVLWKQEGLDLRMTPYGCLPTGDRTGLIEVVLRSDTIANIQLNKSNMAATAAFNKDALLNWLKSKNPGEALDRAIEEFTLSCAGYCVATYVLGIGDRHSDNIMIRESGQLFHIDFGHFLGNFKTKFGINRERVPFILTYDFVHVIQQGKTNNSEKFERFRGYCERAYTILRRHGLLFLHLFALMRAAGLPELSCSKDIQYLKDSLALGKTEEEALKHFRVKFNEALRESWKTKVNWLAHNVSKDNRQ
T1 sequence (P27986 whole entry partner): as the sequence (P27986 whole entry partner) above

SMILES: COc1ncc(-c2ccc3ncn(CCC(N)=O)c(=O)c3c2)cc1NS(=O)(=O)c1ccc(F)cc1Cl [WX001]
IC50 (PI3Kδ): 3.88 nM
IC50 (PI3Kγ): 4.57 nM
IC50 ([2]; Homo sapiens, MCF7, 2 h): 16.8 nM
IC50 (PI3Kβ): 68.5 nM
IC50 (PI3Kα): 1.16 nM

SMILES: Cc1nc(C)c(S(=O)(=O)Nc2cc(-c3ccc4ncn(CCCC(=O)NC(C)C)c(=O)c4c3)cnc2C)s1 [WX006]
IC50 (PI3Kδ): 4.53 nM
IC50 (PI3Kγ): 19.6 nM
IC50 ([2]; Homo sapiens, MCF7, 2 h): 279 nM
IC50 (PI3Kβ): 279 nM
IC50 (PI3Kα): 1 nM

SMILES: CNC(=O)[C@H]1C[C@H](n2cnc3ccc(-c4cnc(C)c(NS(=O)(=O)c5ccc(F)cc5Cl)c4)cc3c2=O)C1 [WX013]
IC50 (PI3Kδ): 5.25 nM
IC50 (PI3Kγ): 15.2 nM
IC50 ([2]; Homo sapiens, MCF7, 2 h): 209 nM
IC50 (PI3Kβ): 95.9 nM
IC50 (PI3Kα): 1.22 nM

SMILES: COc1ncc(-c2ccc3ncn(CC4(C(N)=O)CC4)c(=O)c3c2)cc1NS(=O)(=O)c1ccc(F)cc1Cl [WX023]
IC50 (PI3Kδ): 2.02 nM
IC50 (PI3Kγ): 20.6 nM
IC50 ([2]; Homo sapiens, MCF7, 2 h): 39.9 nM
IC50 (PI3Kβ): 82.4 nM
IC50 (PI3Kα): 5.71 nM

SMILES: COc1ncc(-c2ccc3ncn(CC(N)C(N)=O)c(=O)c3c2)cc1NS(=O)(=O)c1ccc(F)cc1Cl (stereo not drawn) [WX040]
IC50 (PI3Kδ): 25.6 nM
IC50 (PI3Kγ): 39.9 nM
IC50 ([2]; Homo sapiens, MCF7, 2 h): 134 nM
IC50 (PI3Kβ): 183 nM
IC50 (PI3Kα): 5.4 nM

Further lines, results first:

IC50 (PI3Kδ): 47.4 nM
IC50 (PI3Kγ): 48.3 nM
Cmax [1]: 8.34 µM
Oral DNAUC (area under the dose normalization curve) [1]: 882.0 nM · h/mpk
IC50 [2]: 9.04 nM
IC50 (PI3Kβ): 720 nM
IC50 (PI3Kα): 7.06 nM
SMILES: CNC(=O)C(C)Cn1cnc2ccc(-c3cnc(OC)c(NS(=O)(=O)c4ccc(F)cc4C)c3)cc2c1=O (single isomer, unassigned) [WX181]

IC50 (PI3Kδ): 37.5 nM
IC50 (PI3Kγ): 37.8 nM
IC50 [2]: 53.6 nM
IC50 (PI3Kβ): 633 nM
IC50 (PI3Kα): 5.39 nM
SMILES: CNC(=O)[C@@H](C)Cn1cnc2ccc(-c3cnc(OC)c(NS(=O)(=O)c4cc(F)cc(F)c4)c3)cc2c1=O [WX192]

IC50 (PI3Kδ): 16.4 nM
IC50 (PI3Kγ): 17 nM
IC50 [2]: 84.9 nM
IC50 (PI3Kβ): 432 nM
IC50 (PI3Kα): 3.42 nM
SMILES: CNC(=O)[C@@H](C)Cn1cnc2ccc(-c3cnc(OC)c(NS(=O)(=O)c4ccc(F)cc4C(F)(F)F)c3)cc2c1=O [WX194]
